Measurements taken from patent US20110166066A1, “CATESTATIN (CST) AND ITS VARIANTS FOR TREATMENT OF CARDIOVASCULAR AND METABOLIC DISORDERS” (priority 2008, published 2011).
No end group written: not given here.

Tests used:
AKT Ser473 = experiment: Immunoblot of phosphorylated Akt in WT-CST perfused hearts; set-up: species or system rat; details: 110 nM
Procedure: Cardiac signaling—Hearts were perfused with or without 110 nM WT-Cts as before. At the end of experiment hearts were snap frozen under liquid nitrogen and homogenized with 1 ml of ice cold 0.2 M sucrose, Tris maleate (pH 7.0) buffer supplemented with 2 mM EDTA, pH 8.0, 1 mM sodium orthovanadate, 10 mM sodium pyrophosphate, 1 mM phenylmethylsulfonyl fluoride, 10 μg/ml leupeptin, 10 μg/ml aprotinin and 0.1 mM 3-isobutyl-1-methylxanthine. SR membrane fractions were isolated from cytosolic proteins as described before (27). Protein content was determined by Bradford assay (BIO-RAD) and 100 μg of cytosolic protein was subjected to SDS-PAGE immunoblot analysis for phosphorylated-ERK, total ERK (P-ERK and T-ERK; Santa Cruz, Calif.). […]
Statistics—Data are expressed as the mean±SEM. Curve fitting was accomplished in the program Kaleidagraph (Synergy Software, Reading, Pa.). […] For analysis of phosphorylated proteins, levels were quantified using Bio-Rad QuantifyOne and volumes of phosphorylated proteins were divided by the levels of non-phosphorylated proteins to calculate fold activation. Stimulation of protein activity was expressed as fold increase over vehicle-treated control. The means and S.E.M. were calculated for each treatment. […]

[1] = test system: WT and Chga knockout (KO) mice; experiment: BP and HR by telemetry in immobilization stress, conscious mice; format: in vivo
Source text: Animals. Chga knockout (KO) mice and their wild-type (WT) littermates were generated as described (13). All animals were housed on a 12 hr light dark cycle and fed a standard rodent chow. The Animal Care and Use Committee of University of California at San Diego approved all protocols for animal use and euthanasia in accordance with National Institute of Health guidelines. Both WT and KO mice (5-6 month old) in this study were from mixed (129 SvJ and C57BL/6) genetic background.
Conscious mice. Measurement of BP and HR in immobilization stress-induced telemetered mice: BP & HR were measured by telemetry as described previously (13). The experiments were initiated 10 days after the surgery. Immobilization stress was initiated by placing mice in restrainer (Braintree Scientific Inc, Braintree, Mass.) at 10:00 AM and kept for 2 hrs for continuous recording of BP and HR by telemetry followed by recovery from stress in home cages for 2 hrs. CST was injected (40 μg/g bw ip) 30 minutes before stress induction to explore the role of CST in stress response.

[2] = test system: WT, CgA-KO and HFD fed insulin resistant mice; experiment: Blood glucose / glucose tolerance tests; format: in vivo
Source text: Adult WT (C57BL/6) and CgA-KO mice with mixed genetic background (129svJ×C57BL/6) were used in this study. Both WT and KO mice were generated from the original founder carrying mixed genotype (50% 129svJ: 50% C57BL/6) and were maintained by brother/sister mating. Hypertensive CGA-KO mice will serve as a model for hyper insulin sensitivity. WT mice were fed 60% high fat diet (HFD) for 20 weeks. Body weight and blood glucose levels were monitored and glucose and insulin tolerance testa were performed to determine status of insulin resistance. After 20 weeks of HFD feeding mice were injected IP with catestatin (40 μg/gm body weight) twice daily for 7 days. On the 8th day, 12 hours fasted mice were subjected to glucose tolerance tests to determine their insulin sensitivity. Tissues of WT and CgA-KO mice are analyzed AMPK and eNOS signalling by immunoblotting.

CgA null mice = details: pre-treatment; cited from earlier work

## SSMKLSFRARAYGFRGPGPQL [WT-CST, catestatin]
AKT Ser473
  Phosphorylation of AKT at Ser473: inhibited
[1]; KO mice
  Heightened HR responses to stress: abolished
  SBP after 1 h of recovery from the stress: brought SBP to WT level
[1]; KO mice, 40 μg/g bw ip
  Basal SBP: decreased
  Stress-induced increments in SBP: attenuated
[1]; KO mice, stress and recovery
  HR AUC: 143340±1889
  SBP AUC: 26639±399
[1]; WT and KO mice
  Basal or stress-induced increments in DBP: no significant effect
[1]; WT mice
  Basal and stress-induced increase in HR: no effect
[1]; WT mice, 40 μg/g bw ip
  Basal SBP: no effect
[1]; WT mice, 40 μg/g bw ip 30 min before stress
  Attenuation of stress-induced increments in SBP: 7.1 mmHg
[2]; HFD fed insulin resistant mice, 40 μg/gm IP twice daily 7 days
  Peak blood glucose level: reduced
[2]; WT and CgA-KO mice
  Blood glucose level: raised
[2]; insulin-resistant HFD mice
  Reduction of blood glucose level (glucose tolerance tests): 15-20%
CgA null mice
  High blood pressure in CgA null mice: lowers the high blood pressure in CgA null mice to normal levels
